This is an account of results in patent US20070286839A1, “COMPOSITION COMPRISING JOJOBA CARBOXYLATES IN COMBINATION WITH JOJOBA ALCOHOL AND COSMETIC FORMULATION COMPRISING SAME” (priority 2006, published 2007).

This data set has as its system normal, human-derived epidermal keratinocytes. Nature of the data set: EPIDERM Skin Model In Vitro Toxicity Testing System, dermal irritancy potential (ET-50 test). The conditions noted are these: time at which percent viability equals 50%. The method, then:
Applicants' jojobate carboxylate/jojoba alcohol/glycol formulation of Example I was evaluated by MatTek Corporation using an EPIDERM Skin Model In Vitro Toxicity Testing System.
The percentage of viable cells was then determined for each test sample using a spectrophotometric analysis at 570 nm. Thereafter, a semi-log plot of the percent viabilities, on the linear Y axis, versus the dosing times, on the log X axis. By interpolation, the time which the percent viability would equal 50%, i.e. the ET-50 time, was determined.

As for `CCCCCCCCCCCCOS(=O)(=O)[O-].[Na+]` [Sodium Lauryl Sulfate], the ET-50 time result is given as “less than 1 hours”. Then Triton X, with 3.7 h.
